The record followed here is patent publication US20070270418A1, “Inhibitors of P38 and Methods of Using the Same” (priority 2003, published 2007).

Where two headings read alike, the source gives them in different places.

In assay [1] the test system is TNFα release from THP-1 cells. In words: TNFα release from LPS-stimulated THP-1 cells. It is filed as cell-based. Particulars: Homo sapiens, THP-1, 18 h, LPS 10 μg/ml, 18 hours; read-out: TNFα (THP-1) IC50. A digest of the protocol: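 THP-1 cells (10^6 cells/ml on resuspension) preincubated with compound 30 min at 37°C, 5% CO2, final DMSO ≤0.5%, then stimulated with 10 μg/ml LPS for 18 h (TNFα). Supernatants collected for TNFα analysis.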

In assay [2] the test system is collagen-induced arthritis in rats. The experiment in a line: In vivo established type II collagen arthritis study. Set-up: species or system Female Lewis rats. Particulars: Rattus norvegicus, po, oral gavage bid, days 1-7 of arthritis. The method, then:
Compounds are tested in the collagen-induced model of arthritis in rats. Female Lewis rats (0.16-0.2 kg) are injected subcutaneously at the base of the tail and two sites on the back on day 0 and 6 with 300 μl of Freund's Incomplete Adjuvant containing 2 mg/ml of Bovine Type II Collagen. On day 9 of the study, caliper measurements of both hind leg ankle joints are performed. This measurement is considered the normal, pre-disease measurement. When ankle swelling is clearly established in at least one hind paw (caliper measurement increase from 0.263 to 0.282 inches), rats are enrolled into the treatment phase of the study. This occurs on day 10 or 11 of the study and is considered to be day 1 of arthritis. Enrolled animals are randomized and administered vehicle control or compound (1, 3.3, 10, or 30 mg/kg, bid), unless otherwise indicated, or dexamethasone (0.0375 mg/kg, bid) via oral gavage on days 1-7 of arthritis (treatment days). Ankle diameters are measured on each day of treatment. Mean increases in ankle diameter for 7 lead compounds are shown below in FIGS. 3-9.
Following sacrifice on day 7, both hind paws are removed from each animal and weighed. Knees and ankles from all animals in all groups are preserved, decalcified in 5% formic acid and trimmed into two approximately equal longitudinal (ankles) or frontal (knees) halves, dehydrated, cleared, infiltrated, and embedded in paraffin. Blocks are sectioned and stained with Toluidine Blue.
Tissues are examined microscopically and scored for knee and ankle inflammation (cellular infiltration), pannus formation and infiltration, cartilage damage (loss of Toluidine staining and collagen disruption) and bone resorption. Scoring is on a scale from 0-5, where a score of 0 is normal and a score of 5 indicates severe damage or evidence of disease or both.

A further assay has as its target T1, CaMKIV (Homo sapiens, UniProt Q16566).
T1 construct: purchased Upstate (Charlottesville, Va.)
T1 sequence (Q16566 1-473): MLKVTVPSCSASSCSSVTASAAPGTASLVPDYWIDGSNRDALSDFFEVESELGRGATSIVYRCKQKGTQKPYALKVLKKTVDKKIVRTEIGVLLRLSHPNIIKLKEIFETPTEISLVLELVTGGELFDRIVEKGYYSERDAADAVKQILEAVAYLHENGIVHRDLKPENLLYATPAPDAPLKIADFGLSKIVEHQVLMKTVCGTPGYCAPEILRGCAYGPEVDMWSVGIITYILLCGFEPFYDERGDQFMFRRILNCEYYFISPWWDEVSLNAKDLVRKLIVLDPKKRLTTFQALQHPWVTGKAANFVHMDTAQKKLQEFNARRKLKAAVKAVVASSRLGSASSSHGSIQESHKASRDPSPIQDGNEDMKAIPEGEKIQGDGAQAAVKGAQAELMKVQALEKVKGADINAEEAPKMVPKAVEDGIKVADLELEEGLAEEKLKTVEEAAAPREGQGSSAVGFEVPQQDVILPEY
In words: Broad selectivity panel, 32P incorporation. To be noted: 40 μM ATP, read-out: Percent inhibition CaMKIV; for inhibition at 0.1 µM: 0.1 μM compound; for inhibition at 1 µM: 1 μM compound. It counts as biochemical. A digest of the protocol:
(§1)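 Single-point inhibition at two concentrations (0.1 μM, 1 μM) in kinase reactions containing 40 μM ATP. Substrate-incorporated 32P is compared between compound-treated and buffer-control reactions and expressed as percent decrease.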

The next assay has as its system ROCK-II. In words: Broad selectivity panel, 32P incorporation. To be noted: 40 μM ATP. It is filed as biochemical. In short, it runs like this:
as §1

Where [3] appears, read: first column so headed (c3), read-out: ED50 summed ankle histology.
Setting [4] is: second column so headed (c4), read-out: ED50 summed ankle histology.

By IC50 is commonly meant the concentration at which inhibition is half-maximal. One may read the ED50 as the dose at which the effect has come halfway, by size or by number of responders. `Fc1ccc(-c2nc3occn3c2-c2ccnc(NC3CN4CCC3CC4)n2)cc1` (stereo not shown) [LXXXIV]: in assay [1], the IC50 was 9.28 nM. The ED50 in assay [2] (setting [3]) turned out to be 2.6 mg/kg; in assay [2] (read-out: ED50 ankle diameter) it was 1.9 mg/kg; in assay [2] (read-out: ED50 paw weights), 2 mg/kg; in assay [2] (setting [4]) it was 0.6 mg/kg.

The inhibition is the relative decrease from the control value, in per cent. On to `CS(=O)(=O)N1CCC(Nc2nccc(-c3c(-c4ccc(F)cc4)nc4occn34)n2)CC1` [CCLXXIX], for which the inhibition at 0.1 µM at CaMKIV was 18%. The inhibition at 1 µM at CaMKIV is -2%. For the same compound, the “Percent inhibition ROCK-II” value in the assay with ROCK-II (0.1 μM compound) is on record as 10; in the assay on ROCK-II (1 μM compound), 12. Besides, the IC50 in assay [1] came out at 5.1 nM. For the same compound, the ED50 was determined as 4.29 mg/kg in assay [2] (setting [3]), 2.09 mg/kg in assay [2] (read-out: ED50 ankle diameter), 2.57 mg/kg in assay [2] (read-out: ED50 paw weights) and 0.72 mg/kg in assay [2] (setting [4]).

Take `CN1[C@@H]2CC[C@H]1C[C@@H](Nc1nccc(-c3c(-c4ccc(F)cc4)nc4occn34)n1)C2` [CCLXXXI]: at CaMKIV, the inhibition at 0.1 µM worked out at 12%. In addition, the inhibition at 1 µM at CaMKIV stood at 33%. Moreover, the “Percent inhibition ROCK-II” value in the assay on ROCK-II (0.1 μM compound) was 10; in the assay on ROCK-II (1 μM compound), 9. The half-inhibitory concentration (IC50) in assay [1] was 3.64 nM. In addition, the ED50 in assay [2] (setting [3]) is 0.93 mg/kg; in assay [2] (read-out: ED50 ankle diameter) it was 0.98 mg/kg; in assay [2] (read-out: ED50 paw weights), 0.94 mg/kg; in assay [2] (setting [4]) it was 0.2 mg/kg.

Consider `Fc1ccc(-c2nc3occn3c2-c2ccnc(N[C@H]3CN4CCC3CC4)n2)cc1` [LXXXVII], for which the inhibition at 0.1 µM at CaMKIV is -12%. Also, the inhibition at 1 µM at CaMKIV worked out at 10%. Further, the figures for the “Percent inhibition ROCK-II” value in the assay with ROCK-II (0.1 μM compound) and in the assay on ROCK-II (1 μM compound) were 2 and 8, respectively. Also, the IC50 in assay [1] is 1.87 nM. For the same compound, the ED50 in assay [2] (setting [3]) stood at 2.07 mg/kg; in assay [2] (read-out: ED50 ankle diameter), 1.29 mg/kg; in assay [2] (read-out: ED50 paw weights), 1.88 mg/kg; in assay [2] (setting [4]) it was 0.42 mg/kg.

Consider `CC(=O)N1CCC(Nc2nccc(-c3c(-c4ccc(F)cc4)nc4occn34)n2)CC1` [CCLXXVIII], for which, at CaMKIV, the inhibition at 0.1 µM was determined as 8%. The inhibition at 1 µM at CaMKIV turned out to be 21%. Besides, the “Percent inhibition ROCK-II” value in the assay on ROCK-II (0.1 μM compound) is on record as −6; in the assay with ROCK-II (1 μM compound) it was 6. Also, in assay [1], the IC50 came out at 9.26 nM. Moreover, the ED50 in assay [2] (setting [3]) stood at 3.09 mg/kg; in assay [2] (read-out: ED50 ankle diameter) it was 2.04 mg/kg; in assay [2] (read-out: ED50 paw weights) it was 1.55 mg/kg; in assay [2] (setting [4]), 1.24 mg/kg.

On to `Fc1ccc(-c2nc3occn3c2-c2ccnc(N[C@@H]3CN4CCC3CC4)n2)cc1` [LXXI], for which, on CaMKIV, the inhibition at 0.1 µM worked out at 5% and the inhibition at 1 µM worked out at 6%. Moreover, in the assay with ROCK-II (0.1 μM compound), the “Percent inhibition ROCK-II” value is −7. Further, the “Percent inhibition ROCK-II” value with ROCK-II (1 μM compound) is on record as 10. Besides, in assay [1], the IC50 was 19.1 nM.

Turning to `Fc1ccc(-c2nc3occn3c2-c2ccnc(NC3CCNCC3)n2)cc1` [CCLXXX], the inhibition at 0.1 µM on CaMKIV is -10%. In addition, the inhibition at 1 µM on CaMKIV turned out to be 7%. For the same compound, the “Percent inhibition ROCK-II” value in the assay on ROCK-II (0.1 μM compound) amounted to 8; with ROCK-II (1 μM compound), 10. Besides, the IC50 in assay [1] came out at 7.89 nM. The median effective dose (ED50) in assay [2] (setting [3]) was found to be 7.6 mg/kg; in assay [2] (read-out: ED50 ankle diameter), 5.43 mg/kg; in assay [2] (read-out: ED50 paw weights), 3.51 mg/kg; in assay [2] (setting [4]), 1.04 mg/kg.

In the case of `CN(C)CC(C)(C)CNc1nccc(-c2c(-c3ccc(F)cc3)nc3occn23)n1` [CXIX], the inhibition at 0.1 µM on CaMKIV is 13%. Also, the inhibition at 1 µM on CaMKIV turned out to be 7%. Also, the “Percent inhibition ROCK-II” value is on record as 16 with ROCK-II (0.1 μM compound) and −8 in the assay on ROCK-II (1 μM compound). Besides, in assay [1], the IC50 was 33.1 nM. The ED50 turned out to be 2.64 mg/kg in assay [2] (setting [3]), 2.3 mg/kg in assay [2] (read-out: ED50 ankle diameter), 3.75 mg/kg in assay [2] (read-out: ED50 paw weights) and 1.19 mg/kg in assay [2] (setting [4]).
